Experimental data reported in ChEMBL document CHEMBL2321873, “1-(4-Phenylpiperazin-1-yl)-2-(1H-pyrazol-1-yl)ethanones as novel CCR1 antagonists” (Bioorg Med Chem Lett, 2013).
Activity calls are given as the source filed them. No cut-off for these calls is given here.

Tests used:
[1] = biological target: T1, C-C chemokine receptor type 4 (Homo sapiens) (UniProt P51679); assay: Antagonist activity at CCR4 (unknown origin) assessed as inhibition of calcium flux at 10 uM; type: functional
T1 sequence (whole entry): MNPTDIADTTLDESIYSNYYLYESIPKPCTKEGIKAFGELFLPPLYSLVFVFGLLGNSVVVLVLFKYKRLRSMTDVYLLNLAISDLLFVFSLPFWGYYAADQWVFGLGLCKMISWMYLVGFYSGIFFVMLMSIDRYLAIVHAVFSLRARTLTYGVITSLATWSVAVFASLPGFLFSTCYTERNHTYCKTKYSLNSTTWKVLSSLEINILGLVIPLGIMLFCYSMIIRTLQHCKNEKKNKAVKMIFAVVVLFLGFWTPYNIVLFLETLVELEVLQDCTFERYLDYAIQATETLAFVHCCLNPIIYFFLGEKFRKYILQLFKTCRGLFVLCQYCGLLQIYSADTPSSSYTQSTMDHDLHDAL

[2] = biological target: T2, C-C chemokine receptor type 6 (Homo sapiens) (UniProt P51684); assay: Binding affinity to CCR6 (unknown origin) at 10 uM by radioligand displacement assay
T2 sequence (whole entry): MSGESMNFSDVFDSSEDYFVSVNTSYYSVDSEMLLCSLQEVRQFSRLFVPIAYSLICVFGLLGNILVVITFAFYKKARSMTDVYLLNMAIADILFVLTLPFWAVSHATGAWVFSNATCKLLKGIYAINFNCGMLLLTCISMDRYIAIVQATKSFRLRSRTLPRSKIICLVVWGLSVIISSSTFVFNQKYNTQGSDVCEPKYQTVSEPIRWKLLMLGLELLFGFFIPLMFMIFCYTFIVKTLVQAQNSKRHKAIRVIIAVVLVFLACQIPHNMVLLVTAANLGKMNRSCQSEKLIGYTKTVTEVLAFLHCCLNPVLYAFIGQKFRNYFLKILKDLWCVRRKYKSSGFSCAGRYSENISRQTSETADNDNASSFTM

[3] = biological target: T3, C-X-C chemokine receptor type 1 (Homo sapiens) (UniProt P25024); assay: Antagonist activity at CXCR1 (unknown origin) assessed as inhibition of chemotaxis at 10 uM
T3 sequence (whole entry): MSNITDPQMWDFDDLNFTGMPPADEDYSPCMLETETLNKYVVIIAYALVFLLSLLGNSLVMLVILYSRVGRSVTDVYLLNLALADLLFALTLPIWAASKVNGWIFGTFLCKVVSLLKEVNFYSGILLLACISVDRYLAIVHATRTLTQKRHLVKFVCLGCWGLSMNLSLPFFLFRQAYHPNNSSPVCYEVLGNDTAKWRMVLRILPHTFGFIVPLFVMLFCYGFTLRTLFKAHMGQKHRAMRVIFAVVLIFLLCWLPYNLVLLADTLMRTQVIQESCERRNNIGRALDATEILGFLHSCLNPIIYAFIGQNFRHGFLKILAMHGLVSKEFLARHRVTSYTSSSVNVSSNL

Cytomegalovirus = assay: Antagonist activity at CMV US28 assessed as inhibition of chemotaxis at 10 uM
[4] = biological target: T2, C-C chemokine receptor type 6 (Homo sapiens); assay: Antagonist activity at CCR6 (unknown origin) assessed as inhibition of calcium flux at 10 uM; type: functional
[5] = Plasma clearance in Sprague-Dawley rat at 1 mg/kg, iv; type: ADME, organism-based; parameters: dose 1 mg/kg, route intravenous
[6] = Oral bioavailability in Beagle dog at 5 mg/kg; type: ADME, organism-based, Canis lupus familiaris; details: in vivo
[7] = biological target: T4, C-C chemokine receptor-like 2 (Homo sapiens) (UniProt O00421); assay: Antagonist activity at CCR11 (unknown origin) assessed as inhibition of calcium flux at 10 uM; type: functional
T4 sequence (whole entry): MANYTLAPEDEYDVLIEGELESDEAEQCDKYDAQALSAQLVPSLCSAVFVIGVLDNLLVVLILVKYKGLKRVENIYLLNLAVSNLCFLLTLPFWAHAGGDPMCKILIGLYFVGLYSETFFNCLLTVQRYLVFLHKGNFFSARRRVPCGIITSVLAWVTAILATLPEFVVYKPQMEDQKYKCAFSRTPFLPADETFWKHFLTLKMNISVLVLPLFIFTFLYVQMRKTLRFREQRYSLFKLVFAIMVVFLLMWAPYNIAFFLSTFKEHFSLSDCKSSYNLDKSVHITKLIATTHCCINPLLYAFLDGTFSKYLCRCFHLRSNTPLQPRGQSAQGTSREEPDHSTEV

[8] = biological target: T5, C-X-C chemokine receptor type 3 (Homo sapiens) (UniProt P49682); assay: Antagonist activity at CXCR3 (unknown origin) assessed as inhibition of chemotaxis at 10 uM
T5 sequence (whole entry): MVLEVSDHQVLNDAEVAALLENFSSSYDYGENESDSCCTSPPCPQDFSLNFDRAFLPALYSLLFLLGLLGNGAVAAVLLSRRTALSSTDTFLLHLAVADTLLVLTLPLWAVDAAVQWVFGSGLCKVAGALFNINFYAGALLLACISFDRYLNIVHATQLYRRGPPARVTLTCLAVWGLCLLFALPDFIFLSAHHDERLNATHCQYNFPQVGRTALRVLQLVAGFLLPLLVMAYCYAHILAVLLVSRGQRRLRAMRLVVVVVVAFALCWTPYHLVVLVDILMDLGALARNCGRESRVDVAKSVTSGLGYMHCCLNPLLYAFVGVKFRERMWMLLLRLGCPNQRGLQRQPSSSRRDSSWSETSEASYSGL

Salmonella typhimurium = assay: Genotoxicity in Salmonella typhimurium by Ames test in absence of S9 fractions; type: toxicity, organism-based; details: salmonella enterica subsp. enterica serovar typhimurium
Rattus norvegicus = assay: Toxicity in Sprague-Dawley rat assessed as effect on complete blood cell count at 70 to 360 mg/kg, po after 7 days; type: organism-based; parameters: dose 70-360 mg/kg, route oral; details: in vivo, 168 h
Cytochrome P450 2C9 = Cytochrome P450 2C9 (Homo sapiens, UniProt P11712); assay: Competitive inhibition of CYP2C9 (unknown origin); type: ADME
[9] = Plasma clearance in Beagle dog at 1 mg/kg, iv; type: ADME, organism-based, Canis lupus familiaris; parameters: dose 1 mg/kg, route intravenous
[10] = Half life in Beagle dog at 1 mg/kg, iv; type: ADME, organism-based, Canis lupus familiaris; parameters: dose 1 mg/kg, route intravenous; details: in vivo
[11] = biological target: C-X-C chemokine receptor type 6 (Homo sapiens) (UniProt O00574); assay: Antagonist activity at CXCR6 (unknown origin) assessed as inhibition of calcium flux at 10 uM; type: functional
[12] = biological target: C-X-C chemokine receptor type 6 (Homo sapiens) (UniProt O00574); assay: Binding affinity to CXCR6 (unknown origin) at 10 uM by radioligand displacement assay
[13] = biological target: T3, C-X-C chemokine receptor type 1 (Homo sapiens); assay: Antagonist activity at CXCR1 (unknown origin) assessed as inhibition of calcium flux at 10 uM; type: functional
[14] = biological target: T3, C-X-C chemokine receptor type 1 (Homo sapiens); assay: Binding affinity to CXCR1 (unknown origin) at 10 uM by radioligand displacement assay

C-X-C chemokine receptor type 6 (Homo sapiens), sequence (O00574 whole entry, looked up): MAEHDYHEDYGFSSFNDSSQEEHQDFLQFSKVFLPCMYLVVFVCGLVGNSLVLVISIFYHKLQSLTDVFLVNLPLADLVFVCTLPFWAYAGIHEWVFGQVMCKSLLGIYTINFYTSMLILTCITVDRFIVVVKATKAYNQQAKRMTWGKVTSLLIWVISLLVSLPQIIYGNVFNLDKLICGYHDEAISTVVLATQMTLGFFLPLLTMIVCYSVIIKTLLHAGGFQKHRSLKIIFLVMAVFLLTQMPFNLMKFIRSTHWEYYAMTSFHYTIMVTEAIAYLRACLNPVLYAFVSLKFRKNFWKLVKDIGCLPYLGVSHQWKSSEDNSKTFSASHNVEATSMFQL
Cytochrome P450 2C9, sequence (P11712 whole entry): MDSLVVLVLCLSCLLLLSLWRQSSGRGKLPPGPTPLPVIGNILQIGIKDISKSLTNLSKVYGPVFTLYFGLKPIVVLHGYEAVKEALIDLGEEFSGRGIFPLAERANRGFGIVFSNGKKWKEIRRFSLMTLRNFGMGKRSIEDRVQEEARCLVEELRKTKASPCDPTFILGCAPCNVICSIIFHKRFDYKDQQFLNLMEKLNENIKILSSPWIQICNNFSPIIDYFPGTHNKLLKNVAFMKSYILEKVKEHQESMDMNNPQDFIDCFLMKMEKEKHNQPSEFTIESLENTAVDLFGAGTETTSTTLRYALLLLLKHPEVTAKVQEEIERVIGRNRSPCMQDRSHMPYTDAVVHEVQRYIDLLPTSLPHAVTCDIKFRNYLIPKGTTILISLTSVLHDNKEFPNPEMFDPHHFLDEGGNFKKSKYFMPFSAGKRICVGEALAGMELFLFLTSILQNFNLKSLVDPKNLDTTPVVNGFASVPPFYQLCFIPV

In the case of `COc1cc(N2CCN(C(=O)Cn3nc(C(F)(F)F)c(Cl)c3C)CC2)ccc1Cl`, the inhibition [1] is reported as “inactive”, the Activity [2] is reported as “inactive” and the inhibition [3] is reported as “inactive”. For the same molecule, the inhibition (Cytomegalovirus) was “inactive”, the inhibition [4] was “inactive” and the clearance [5] was 20 mL/min/kg. The bioavailability [6] was 20%, the inhibition [7] was “inactive” and the inhibition [8] was “inactive”. The Activity (Salmonella typhimurium) was “Non-toxic”, the Activity (Rattus norvegicus) was “Non-toxic” and the IC50 (Cytochrome P450 2C9) was over 10 µM. For the same molecule, the clearance [9] was 9.6 mL/min/kg, the half-life [10] was 13.4 h and the inhibition [11] was “inactive”. The Activity [12] was “inactive”, the inhibition [13] was “inactive” and the Activity [14] was “inactive”.
